# System: hepatocellular carcinoma cell line Hub-7
# Assay: Cell proliferation assay, Hub-7 (CELL-TITER GLO)
# Assay type: cell-based
# Conditions: Hub-7 cells, 24 h incubation, cell viability by CELL-TITER GLO, top concentration 10 μM; read-out: EC50, Inhibition of Hub-7 Cell Proliferation
# How it was run: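 Hub-7 cells, 4,000 per well, seeded overnight, then exposed 24 h to compound from 10 μM top in 3-fold serial dilution. Viability read by CELL-TITER GLO luminescence; EC50 derived and binned into potency categories.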
row,SMILES,EC50 [nM]
1,"C#Cc1ncc(C(=O)N2CCN(c3ccc(-c4cccc5scnc45)cc3)CC2)s1 [Compound D8, (4-(4-(Benzo[d]thiazol-4-yl)phenyl)piperazin-1-yl)(2-ethynylthiazol-5-yl)methanone]",200 to 1000
2,"C#Cc1nc(C(=O)N2CCN(c3ccc(-c4cccc5ncsc45)cc3Cl)CC2)cs1 [Compound D9, (4-(4-(Benzo[d]thiazol-7-yl)-2-chlorophenyl)piperazin-1-yl)(2-ethynylthiazol-4-yl)methanone]",≤ 200
3,"C#Cc1nc(C(=O)N2CCN(c3ccc(-c4cccc5ncsc45)cn3)CC2)cs1 [Compound D10, (4-(5-(Benzo[d]thiazol-7-yl)pyridin-2-yl)piperazin-1-yl)(2-ethynylthiazol-4-yl)-methanone]",≤ 200
4,"C#Cc1nc(C(=O)N2CCC(O)(c3ccc(-c4cccc5ncsc45)cc3)CC2)cs1 [Compound D14, (4-(4-(Benzo[d]thiazol-7-yl)phenyl)-4-hydroxypiperidin-1-yl)(2-ethynylthiazol-4-yl)methanone]",≤ 200
5,"C#Cc1nc(C(=O)N2CCN(c3cccc(-c4cccc5ncsc45)c3)CC2)cs1 [Compound D16, (4-(3-(Benzo[d]thiazol-7-yl)phenyl)piperazin-1-yl)(2-ethynylthiazol-4-yl)-methanone]",200 to 1000
6,"C#Cc1nc(C(=O)N2CCN(c3ccc(-c4cccc5ncsc45)cc3)CC2)cs1 [Compound D17, (4-(4-(Benzo[d]thiazol-7-yl)phenyl)piperazin-1-yl)(2-ethynylthiazol-4-yl)-methanone]",≤ 200
7,"C#Cc1nc(C(=O)N2CCN(c3ccc(-c4cccc5c4cnn5C)cc3)CC2)cs1 [Compound D22, (2-Ethynylthiazol-4-yl)(4-(4-(1-methyl-1H-indazol-4-yl)phenyl)piperazin-1-yl)-methanone]",≤ 200
8,"C#Cc1nc(C(=O)N2CCN(c3ccc(-c4cccc5nn(C)cc45)cc3)CC2)cs1 [Compound D23, (2-Ethynylthiazol-4-yl)(4-(4-(2-methyl-2H-indazol-4-yl)phenyl)piperazin-1-yl)-methanone]",≤ 200
9,"C#Cc1nc(C(=O)N2CCN(c3ccc(-c4cccc5[nH]ncc45)cc3)CC2)cs1 [Compound D25, (4-(4-(1H-Indazol-4-yl)phenyl)piperazin-1-yl)(2-ethynylthiazol-4-yl)methanone]",≤ 200
10,"C#Cc1nc(C(=O)N2CCCCC2CCO)cs1 (stereo not drawn) [Compound D32, (2-Ethynylthiazol-4-yl)(2-(2-hydroxyethyl)piperidin-1-yl)methanone]",> 5000
11,"C#Cc1nc(C(=O)N2CCCC(C(=O)OC)C2)cs1 (stereo not drawn) [Compound D36, Methyl 1-(2-ethynylthiazole-4-carbonyl)piperidine-3-carboxylate]",> 5000
12,"C#Cc1nc(C(=O)N2CCCCC2C(=O)OC)cs1 (stereo not drawn) [Compound D37, Methyl 1-(2-ethynylthiazole-4-carbonyl)piperidine-2-carboxylate]",> 5000
13,"C#Cc1nc(NC(=O)CCc2ccc(-c3cccc4ncsc34)cc2)cs1 [Compound E1, 3-(4-(benzo[d]thiazol-7-yl)phenyl)-N-(2-ethynylthiazol-4-yl)propanamide]",200 to 1000
14,"C#Cc1nc(NC(=O)[C@@H](N)Cc2ccccc2)cs1 [Compound E2, (S)-2-Amino-N-(2-ethynylthiazol-4-yl)-3-phenylpropanamide]",1000 to 5000
15,"C#Cc1nc(NC(=O)[C@H](N)Cc2ccccc2)cs1 [Compound E3, (R)-2-Amino-N-(2-ethynylthiazol-4-yl)-3-phenylpropanamide]",200 to 1000
16,"C#Cc1nc(NC(=O)CCc2ccc(-c3cccc4c3cnn4C)cc2)cs1 [Compound E4, N-(2-Ethynylthiazol-4-yl)-3-(4-(1-methyl-1H-indazol-4-yl)phenyl)propanamide]",≤ 200
17,"C#Cc1nc(NC(=O)[C@H](N)Cc2ccccc2C#N)cs1 [Compound E5, (R)-2-Amino-3-(2-cyanophenyl)-N-(2-ethynylthiazol-4-yl)propenamide]",≤ 200
18,"C#Cc1nc(C(=O)NCCc2cccc(-c3cncs3)c2)cs1 [Compound E6, 2-Ethynyl-N-(3-(thiazol-5-yl)phenethyl)thiazole-4-carboxamide]",200 to 1000
19,"C#Cc1nc(C(=O)NCCc2cccc(-c3cscn3)c2)cs1 [Compound E7, 2-Ethynyl-N-(3-(thiazol-4-yl)phenethyl)thiazole-4-carboxamide]",1000 to 5000
20,"C#Cc1nc(NC(=O)[C@@H](N)Cc2ccccc2C#N)cs1 [Compound E8, (S)-2-Amino-3-(2-cyanophenyl)-N-(2-ethynylthiazol-4-yl)propenamide]",1000 to 5000
21,"C#Cc1nc(NC(=O)CCc2ccc3c(c2)OCO3)cs1 [Compound E9, 3-(Benzo[d][1,3]dioxol-5-yl)-N-(2-ethynylthiazol-4-yl)propanamide]",200 to 1000
22,"C#Cc1nc(NC(=O)c2ccc3ccccc3n2)cs1 [Compound E10, N-(2-Ethynylthiazol-4-yl)quinoline-2-carboxamide]",1000 to 5000
23,"C#Cc1nc(NC(=O)C=Cc2ccccc2)cs1 [Compound E11, N-(2-Ethynylthiazol-4-yl)cinnamamide]",200 to 1000
24,"C#Cc1nc(NC(=O)c2ccccc2)cs1 [Compound E12, N-(2-Ethynylthiazol-4-yl)benzamide]",1000 to 5000

# Results, then the compound that gave them:
row,EC50 [nM],SMILES
1,≤ 200,"C#Cc1nc(C(=O)N2CCC(F)(c3ccc(-c4cccc5ncsc45)cc3)CC2)cs1 [Compound D11, (4-(4-(Benzo[d]thiazol-7-yl)phenyl)-4-fluoropiperidin-1-yl)(2-ethynylthiazol-4-yl)methanone]"
2,≤ 200,"C#Cc1nc(C(=O)N2CCN(c3ccc(-c4cccc5ncsc45)cc3C#N)CC2)cs1 [Compound D12, 5-(Benzo[d]thiazol-7-yl)-2-(4-(2-ethynylthiazole-4-carbonyl)piperazin-1-yl)-benzonitrile]"
3,≤ 200,"C#Cc1nc(C(=O)N2CC(c3ccc(-c4cccc5ncsc45)cc3)C2)cs1 [Compound D13, (3-(4-(Benzo[d]thiazol-7-yl)phenyl)azetidin-1-yl)(2-ethynylthiazol-4-yl)-methanone]"
4,200 to 1000,"C#Cc1nc(C(=O)N2CCC(c3cccc(-c4cccc5ncsc45)c3)CC2)cs1 [Compound D15, (4-(3-(Benzo[d]thiazol-7-yl)phenyl)piperidin-1-yl)(2-ethynylthiazol-4-yl)-methanone]"
5,≤ 200,"C#Cc1nc(C(=O)N2CCC(c3ccc(-c4cccc5ncsc45)cc3)CC2)cs1 [Compound D18, (4-(4-(Benzo[d]thiazol-7-yl)phenyl)piperidin-1-yl)(2-ethynylthiazol-4-yl)-methanone]"
6,≤ 200,"C#Cc1nc(C(=O)N2CCC(c3ccc(-c4cccc5nn(C)cc45)cc3)CC2)cs1 [Compound D19, (2-Ethynylthiazol-4-yl)(4-(4-(2-methyl-2H-indazol-4-yl)phenyl)piperidin-1-yl)-methanone]"
7,≤ 200,"C#Cc1nc(C(=O)N2CCC(c3ccc(-c4cccc5c4cnn5C)cc3)CC2)cs1 [Compound D20, (2-Ethynylthiazol-4-yl)(4-(4-(1-methyl-1H-indazol-4-yl)phenyl)piperidin-1-yl)-methanone]"
8,≤ 200,"C#Cc1nc(C(=O)N2CCC(c3ccc(-c4cccc5[nH]ncc45)cc3)CC2)cs1 [Compound D21, (4-(4-(1H-Indazol-4-yl)phenyl)piperidin-1-yl)(2-ethynylthiazol-4-yl)methanone]"
9,≤ 200,"C#Cc1nc(C(=O)N2CCC(c3ccc(C#N)cc3)CC2)cs1 [Compound D24, 4-(1-(2-Ethynylthiazole-4-carbonyl)piperidin-4-yl)benzonitrile]"
10,200 to 1000,"C#Cc1nc(C(=O)N2CCN(c3ccc(C#N)cc3)CC2)cs1 [Compound D26, 4-(4-(2-Ethynylthiazole-4-carbonyl)piperazin-1-yl)benzonitrile]"
11,≤ 200,"C#Cc1nc(C(=O)N2CCN(c3ccc([N+](=O)[O-])cc3)CC2)cs1 [Compound D27, (2-Ethynylthiazol-4-yl)(4-(4-nitrophenyl)piperazin-1-yl)methanone]"
12,200 to 1000,"C#Cc1nc(C(=O)N2CCN(c3ccccc3)CC2)cs1 [Compound D28, (2-Ethynylthiazol-4-yl)(4-phenylpiperazin-1-yl)methanone]"
13,200 to 1000,"C#Cc1nc(C(=O)N2CCC(c3ccccc3)CC2)cs1 [Compound D29, (2-Ethynylthiazol-4-yl)(4-phenylpiperidin-1-yl)methanone]"
14,200 to 1000,"C#Cc1nc(C(=O)N2CCc3ccccc3C2)cs1 [Compound D30, (3,4-Dihydroisoquinolin-2(1H)-yl)(2-ethynylthiazol-4-yl)methanone]"
15,> 5000,"C#Cc1nc(C(=O)N2CCC(O)CC2)cs1 [Compound D31, (2-Ethynylthiazol-4-yl)(4-hydroxypiperidin-1-yl)methanone]"
16,> 5000,"C#Cc1nc(C(=O)N2CCCC(CO)C2)cs1 (stereo not drawn) [Compound D33, (2-Ethynylthiazol-4-yl)(3-(hydroxymethyl)piperidin-1-yl)methanone]"
17,> 5000,"C#Cc1nc(C(=O)N2CCCC(O)C2)cs1 (stereo not drawn) [Compound D34, (2-Ethynylthiazol-4-yl)(3-hydroxypiperidin-1-yl)methanone]"
18,> 5000,"C#Cc1nc(C(=O)N2CCC(C(=O)OC)CC2)cs1 [Compound D35, Methyl 1-(2-ethynylthiazole-4-carbonyl)piperidine-4-carboxylate]"

# Reference: US20240101546A1, “HETEROARYL-ACETYLENES, PHARMACEUTICAL COMPOSITIONS THEREOF, AND THEIR THERAPEUTIC APPLICATIONS” (Eubulus Biotherapeutics Inc., priority 2020, published 2024)
